{"source": "patent US7425579B2", "about": "“Methods for inhibiting activity of polyamine transporters” (Universite Laval, priority 1998, dated 2008)", "key": {"[1]": {"system": "T-47D cells", "experiment": "Effect of inhibitors on T-47D cell proliferation (DNA content)", "format": "cell-based, human", "settings": "T-47D cells, 9 d", "procedure": "FIGS. 3A and 3B are graphs showing the effect compounds used in a method according preferred embodiment of the present invention, on cell proliferation. In particular, they relate to the effect of selected BSD and BNSD derivatives on T-47D cell proliferation. Cells were incubated for 9 d with the indicated concentrations of BSD-2 (∘), BNSD-4 (●), BSD-4 (□), BNSD-6 (▪), BSD-10 (Δ), BSD-4-ene (▴) and BSD-4-yne (▾) in medium containing 1 mM aminoguanidine, and total DNA content per culture was then determined. B, Effect of BNSD-X (N,N,N′,N′-tetrakis-(3-aminopropyl)-p-diaminoxylene) on cell proliferation in various mammalian cell lines. Jurkat (∘), LAN-1 (●), L1210 (□), T-47D (▪), ZR-75-1 (Δ) and MDA-MB-231 (▴) cells were grown to near confluency or saturation (for 4 to 11 d according to the cell line considered) with the indicated concentrations of BNSD-X in the presence of 1 mM aminoguanidine, and total DNA content per culture was then determined. Data are given as the mean±SD for triplicate cultures from one out of at least two identical experiments;\nFIGS. 4A and 4B are graphs showing how compounds used in a method according to a preferred embodiment are differentially sensitive to degradation by BSAO (bovine serum amine oxidase). In particular, T-47D cells were incubated for 9 d with the indicated concentrations of BSD-X (∘), BNSD-X (●), BSD-3 (□) or BNSD-3 (▪) in the absence (A) or presence of 1 mM aminoguanidine (B), and total DNA content per culture was then determined. Data are presented as the mean±SD for triplicate cultures from one representative experiment;\nThe effect of transport inhibitors on cell proliferation was evaluated by determination of cell number (L1210, Jurkat) using electronic sizing with a Model ZM Coulter counter (Coulter Electronics, Hialeah, Fla.), or DNA content per culture (for all other cell lines) with the 3,5-diaminobenzoic acid assay. […] Cytotoxicity of the inhibitors was determined in the presence or absence of aminoguanidine, and was confirmed by a trypan blue exclusion assay."}, "[2]": {"system": "CHO-TOR cells", "experiment": "Potentiation of DFMO-induced cytostasis in CHO-TOR cells", "format": "cell-based, Chinese hamster", "settings": "2 mM DFMO; 4 d", "procedure": "FIGS. 9A and 9B are graphs showing that potentiation of DFMO-induced cytostasis by a compound used in a method according to a preferred embodiment of the invention requires a functional polyamine transport system. In particular, CHO-TOR cells (A) and their polyamine transport-deficient mutant subline CHO-MG (B) were grown in medium containing 1 mM aminoguanidine and the indicated concentration of spermidine, in the presence of 2 mM DFMO (●), BNSD-X (□), DFMO+BNSD-X (▪), or vehicle only (∘). Cells were harvested after 4 d for determination of total DNA/well. Data are presented as the mean±SD for triplicate cultures from one representative experiment;\nTo determine the ability of polyamine transport antagonists to potentiate DFMO-induced inhibition of cell proliferation in the presence of exogenous polyamines, cells were grown for the indicated period in growth medium supplemented with 1 mM aminoguanidine, and either DFMO (1 to 5 mM), the indicated transport inhibitor (50 or 100 μM), or the combination thereof, as well as increasing concentrations of spermidine (0.1 to 300 μM). Fresh medium was added every other day, and cell mass was determined at various time points during the period of exponential growth, or at the end of the experimental period. […]"}, "[3]": {"system": "CHO-K1 cells", "experiment": "Determination of intracellular polyamine contents in CHO-K1 cells", "format": "cell-based, Chinese hamster", "procedure": "At the indicated time, cells were harvested for the determination of putrescine (A), spermidine (B) and spermine contents (C). Data are presented as the mean±SD for triplicate cultures from one representative experiment; […] At the indicated time intervals, medium was removed, cell monolayers were rinsed twice: with 10 ml of ice-cold Ca^2+/Mg^2+-free phosphate-buffered saline (PBS) (2.7 mM KCl, 1.5 mM KH2PO4, 8.1 mM Na2HPO4, 137 mM NaCl), and cells were harvested by low-speed centrifugation (2400 g for 5 min at 4° C.). […] Polyamine content was then determined by ion-pair reverse phase HPLC with fluorometric detection after post-column derivatization with o-phthaldialdehyde as described (U.S. Pat. No. 6,083,496). […] Pat. No. 6,083,496)."}, "[4]": {"system": "mice", "experiment": "Acute and subacute oral toxicity of BNSD-X by gavage", "format": "in vivo", "procedure": "To assess the relative toxicity of BNSD-X, the drug was administered as a 1% (w/v) solution in the drinking water to CD-1 mice with ad libitum access for 14 d. Mice were weighed every other day during the experiment. At the end of the experiment, mice were sacrificed, and organs (kidneys, liver, and spleen) were immediately weighed. Organs were then saved in 10% formalin for morphological examination by an in-house pathologist at the CHUL Research Center (Quebec City, Canada). Acute and subacute oral toxicity of BNSD-X was also separately determined by administering the drug by gavage (0-5 g/kg body weight).\nOrally administered polyamines (at ≧0.6 g/kg/day) can have deleterious neurological effects and induce lesions on internal organs (Til et al. (1997) Food Chem Toxicol. 35:337-348.). In order to assess the acute and subacute toxicity of BNSD-X as an orally delivered hexaamine, the effects of gavage with solid BNSD-X pellets was first examined in mice."}}, "data": [{"smiles": "NCCCN(CCCN)Cc1ccc(CN(CCCN)CCCN)cc1", "note": "[28a, N,N,N′,N′-tetrakis-(3-aminopropyl)-p-diaminoxylene]", "values": [{"measurement": "effect of aminoguanidine addition on the cytotoxicity of the dimer", "setting": "[1]; 1 mM aminoguanidine", "result": "abolished most of the cytotoxicity"}, {"measurement": "cytotoxicity in the absence of aminoguanidine", "setting": "[1]; BSAO active", "result": "considerably more cytotoxic than their spermidine-like homologs"}, {"measurement": "potentiation of DFMO-induced cytostasis in the absence of exogenous spermidine, CHO-TOR", "setting": "[2]", "result": "observed in the parental cell line"}, {"measurement": "reduction of intracellular spermidine content by BNSD-X alone", "setting": "[3]; 100 μM, over the first 2 days of incubation", "result": "about 50%"}, {"measurement": "effect on intracellular putrescine content", "setting": "[3]; single agent", "result": "quickly led to putrescine depletion"}, {"measurement": "effect on intracellular spermine content", "setting": "[3]; up to 4 days", "result": "no significant effect on spermine content"}, {"measurement": "adverse effect on animal behavior, body weight, body features and gross anatomy of kidneys, liver or spleen", "setting": "[4]; gavage, up to 5.0 g/kg body weight", "result": "No external sign of sign of adverse effect"}, {"measurement": "LD50", "setting": "[4]; oral gavage with solid BNSD-X pellets", "result": "> 5", "unit": "g/body weight"}]}]}
